Results on eight compounds are retold here after patent US4022900A, “Compositions containing 1,2,3,4-tetrahydroisoquinolines used as hypotensive agents” (Marion Laboratories, Inc., priority 1972, dated 1977).

For one data set, the system named is femoral artery of a dog. As to the kind of experiment: Peripheral vasodilator activity after administration into femoral artery of a dog. The format is in vivo. Conditions: into the femoral artery, compared with papaverine.
Data set [1] relates to systolic blood pressure of deoxycorticosterone acetate hypertensive rats. As to the kind of experiment: Hypotensive activity in DCA/saline hypertensive rats (systolic blood pressure, tail cuff). The format is in vivo, rat (male, CD strain). Conditions: for Lowering of Blood Pressure in Hypertensive rate in mm's of Hg., 1 hr. / Lowering of Blood Pressure in Hypertensive rate in mm's of Hg., 2 hrs. / Lowering of Blood Pressure in Hypertensive rate in mm's of Hg., 4 hrs. / Lowering of Blood Pressure in Hypertensive rate in mm's of Hg., 24 hrs. / compounds which appear most active from Table I: 50 mg/kg intraperitoneal; for Lowering of Blood Pressure in Hypertensive rate in mm's of Hg., 1 hr. / Lowering of Blood Pressure in Hypertensive rate in mm's of Hg., 2 hrs. / Lowering of Blood Pressure in Hypertensive rate in mm's of Hg., 4 hrs. / Lowering of Blood Pressure in Hypertensive rate in mm's of Hg., 24 hrs.: change vs predrug control, six rats; for compounds which appear most active from Table I: qualitative ranking; for Percent Change in Pressure from Control ± S.E., 1 Hour / Percent Change in Pressure from Control ± S.E., 2 Hours / Percent Change in Pressure from Control ± S.E., 4 Hours / Percent Change in Pressure from Control ± S.E., 24 Hours: 50 mg/kg i.p., systolic pressure, * <0.05 significance (Newman-Keuls). The method, then:
Hypertension was produced in weanling (30-day old) male rats of the CD strain obtained from the Charles River Breeding Laboratories (Wilmington, Mass.) by subcutaneously implanting about the dorsal surface of the neck a pellet of deoxycorticosterone acetate (DCA) containing 10 mg DCA in a mixture of Carbowax 4000 (Union Carbide) and Flexowax C light (Glyco Products). Their drinking water was replaced by a 1% sodium chloride solution, a procedure known to facilitate the development of an experimental hypertension, and they had free access to chow. Systolic blood pressure in the caudal arteries was measured indirectly by a pneumatic pulse transducer and a tail pressure cuff on a Physiograph Four recorder (Narco Bio-Systems, Inc., Houston, Texas) in unanesthetized but restrained rats prewarmed to 40° C., 10-15 minutes prior to the determination. The rats were kept at a temperature of 40° C. for all determinations of systolic pressure in an attempt to minimize variations in blood pressure due to marked changes in arterial tone caused by changes in temperature. Blood pressures were measured at intervals in the DCA-treated rats given saline and in non-treated control rats. After 20 days, the mean systolic pressure in the DCA-treated rats was above 150 mm Hg. Hypertension was regarded as being established in the rats at this stage and they were at intervals, usually beginning with the 30th day after DCA-implant in testing for hypotensive activity. Following a series of control blood pressure readings, a dose of 50 mg/kg of the compound under investigation was administered by intraperitoneal injection either in solution or as a suspension in 1% tragacanth solution to groups of six hypertensive rats. Blood pressures were redetermined at 1, 2, 4 and 24 hour periods following injection. At each interval, the systolic pressure was measured a minimum of five times in each rat and the average value was calculated. Mean values for the group were calculated from the individual average values and compared with their predrug control levels. The statistical significance of the changes produced by the compounds, in the doses employed, was tested by the "t" test as well as by an analysis of variance. The reductions in blood pressure obtained with the indicated representative tetrahydroisoquinoline compounds are shown in Table I. The code number for the compound and the example herein showing its preparation are both given in Table I.
(§1) Additional compounds have been tested. The toxicity data for the additional compounds tested, and their identity, is given in the following Table II while the blood pressure lowering activity of the compounds is given in the following Table III. The heading "Example Number" in the tables refers to the working example herein which discloses the compounds and its preparation. The test procedure used for determining the blood pressure lowering activity of the compounds is the same as that previously set forth herein. However, the figures in Table III are expressed as percentage change in blood pressure, rather than in mm of mercury change in blood pressure, as presented in Table I herein.

Data set [2] can be described thus: Acute toxicity (LD50) in the mouse. Conditions: in vivo; for LD50 at 24 h: read-out: Approximate Acute Toxicity (24 hrs.) In the Mouse, LD50. The method, then:
5-(3,4,5-trimethoxybenzamido)-2-methyl-1,2,3,4-tetrahydroisoquinoline (M-20) in mice has an LD-50 of about 125 to 250 mg/kg intraperitoneally.
as §1
Approximate Acute Toxicity (24 hrs.)
(a) Suspension in 1% tragacanth
(b) Solution in distilled water
(c) Solubilized with the aid of dilute acid

Data set [3] relates to arterial blood pressure of anesthetized dog. The experiment in a line: Arterial blood pressure in the anesthetized dog. In kind it is in vivo. Conditions: 5 mg/kg intravenously.
Setting [4] is: Table I, unit, species and route not given.
Where [5] appears, read: ip, solubilized with the aid of dilute acid.

As a reminder, the LD50 is the dose at which mortality reaches 50%.

Structures can show the parent of a compound that is named as a salt. Where two headings read alike, the source gives them in different places.

With `COc1cc(C(=O)Nc2cccc3c2CCN(C)C3)cc(OC)c1OC` [M-20, 5-(3,4,5-Trimethoxybenzamido)-2-methyl-1,2,3,4-tetrahydroisoquinoline], the peripheral vasodilator activity result in the data set with femoral artery of a dog is recorded as “peripheral vasodilator activity although less than that of papaverine”. Further, in data set [1], the “Lowering of Blood Pressure in Hypertensive rate in mm's of Hg., 1 hr.” value (“Lowering of Blood Pressure … 1 hr.” below) is reported as -19±3 mm's of Hg; the “Lowering of Blood Pressure in Hypertensive rate in mm's of Hg., 2 hrs.” value (“Lowering of Blood Pressure … 2 hrs.” below) is -26±2 mm's of Hg; the “Lowering of Blood Pressure in Hypertensive rate in mm's of Hg., 4 hrs.” value (“Lowering of Blood Pressure … of Hg., 4 hrs.” for short) is recorded as -15±10 mm's of Hg; the “Lowering of Blood Pressure in Hypertensive rate in mm's of Hg., 24 hrs.” value (from here on “Lowering of Blood Pressure … 24 hrs.”) is given as -3±2 mm's of Hg. The compound further had an LD50 in data set [2] (setting [4]) of 125 to 250 mg/kg. The same compound showed an LD50 in data set [2] (ip, mice, intraperitoneally, about) of 125 to 250 mg/kg. Moreover, the arterial blood pressure entry in data set [3] was “decreased arterial blood pressure”.
Regarding `CN1CCc2c(cccc2NC(=O)c2ccccc2Cl)C1` [M-63, 5-(2-Chlorobenzamido)-2-methyl-1,2,3,4-tetrahydroisoquinoline], in data set [1], the “Lowering of Blood Pressure … 1 hr.” value is given as -25±2 mm's of Hg; the “Lowering of Blood Pressure … 2 hrs.” value is recorded as -36±4 mm's of Hg; the “Lowering of Blood Pressure … of Hg., 4 hrs.” value is given as -34±4 mm's of Hg; the “Lowering of Blood Pressure … 24 hrs.” value is -28±4 mm's of Hg. Also, the “compounds which appear most active from Table I” value in data set [1] was “most active”. The LD50 in data set [2] (setting [4]) was 125 to 188 mg/kg.
As for `COc1cc(C(=O)Nc2cccc3c2CN(C)CC3)cc(OC)c1OC` [M-65, 8-(3,4,5-Trimethoxybenzamido)-2-methyl-1,2,3,4-tetrahydroisoquinoline], in data set [1], the “Lowering of Blood Pressure … 1 hr.” value is given as -55±10 mm's of Hg; the “Lowering of Blood Pressure … 2 hrs.” value is -44±8 mm's of Hg; the “Lowering of Blood Pressure … of Hg., 4 hrs.” value is -27±3 mm's of Hg; the “Lowering of Blood Pressure … 24 hrs.” value is reported as -21±7 mm's of Hg. Besides, in data set [1], the “compounds which appear most active from Table I” value is on record as “most active”. Besides, in data set [2] (setting [4]), the LD50 is 250 to 500 mg/kg.
Regarding `CCc1cccc(CC)c1C(=O)Nc1cccc2c1CCN(C)C2` [M-66, 5-(2,6-Diethylbenzamido)-2-methyl-1,2,3,4-tetrahydroisoquinoline], in data set [1], the “Percent Change in Pressure from Control ± S.E., 1 Hour” value (shortened to “Percent Change in Pressure … 1 Hour”) is -5.7 ± 3.0%; the “Percent Change in Pressure from Control ± S.E., 2 Hours” value (shortened to “Percent Change in Pressure … 2 Hours”) is given as -7.5 ± 4.6%; the “Percent Change in Pressure from Control ± S.E., 4 Hours” value was -6.1 ± 2.8%; the “Percent Change in Pressure from Control ± S.E., 24 Hours” value (“Percent Change in Pressure … 24 Hours” below) is -2.1 ± 2.3%. Also, the LD50 at 24 h in data set [2] (setting [5]) fell in the range of 125 to 250 mg/kg.
On to `CN1CCc2c(cccc2NC(=O)c2ccccc2F)C1` [M-68, 5-(2-Fluorobenzamido)-2-methyl-1,2,3,4-tetrahydroisoquinoline], for which, in data set [1], the “Lowering of Blood Pressure … 1 hr.” value was -13±5 mm's of Hg; the “Lowering of Blood Pressure … 2 hrs.” value was -10±5 mm's of Hg; the “Lowering of Blood Pressure … of Hg., 4 hrs.” value is listed as -11±4 mm's of Hg; the “Lowering of Blood Pressure … 24 hrs.” value is -20±4 mm's of Hg. In addition, the LD50 in data set [2] (setting [4]) lay within 250 to 500 mg/kg.
Regarding `CN1CCc2c(cccc2NC(=O)c2ccccc2[N+](=O)[O-])C1` [M-69, 5-(2-Nitrobenzamido)-2-methyl-1,2,3,4-tetrahydroisoquinoline], in data set [1], the “Percent Change in Pressure … 2 Hours” value is given as -4.1 ± 3.0%; the “Percent Change in Pressure from Control ± S.E., 4 Hours” value was -3.3 ± 4.0%; the “Percent Change in Pressure … 24 Hours” value is -1.0 ± 3.0%. The LD50 at 24 h in data set [2] (setting [5]) was in the range of 125 to 250 mg/kg.
Take `CN1CCc2c(cccc2NC(=O)c2ccccc2I)C1` [M-70, 5-(2-Iodobenzamido)-2-methyl-1,2,3,4-tetrahydroisoquinoline]: in data set [1], the “Percent Change in Pressure … 1 Hour” value is -6.8 ± 2.1%; the “Percent Change in Pressure … 2 Hours” value is given as -9.9 ± 2.1%; the “Percent Change in Pressure from Control ± S.E., 4 Hours” value is -5.7 ± 1.9%; the “Percent Change in Pressure … 24 Hours” value is on record as -0.7 ± 2.9%. For the same compound, the LD50 at 24 h in data set [2] (setting [5]) is less than 31 mg/kg.
As for `COc1cc(C(=O)Nc2ccc3c(c2)CCN(C)C3)cc(OC)c1OC` [M-72, 6-(3,4,5-Trimethoxybenzamido)-2-methyl-1,2,3,4-tetrahydroisoquinoline HCl], in data set [1], the “Percent Change in Pressure … 1 Hour” value is given as -21.6 ± 1.7%; the “Percent Change in Pressure … 2 Hours” value is given as -19.4 ± 4.0%; the “Percent Change in Pressure from Control ± S.E., 4 Hours” value is on record as -11.9 ± 3.4%; the “Percent Change in Pressure … 24 Hours” value is -3.8 ± 1.3%. In addition, the LD50 at 24 h in data set [2] (ip, solution in distilled water) was 188 to 250 mg/kg.
